Activity calls are given as the source filed them. No cut-off for these calls is given here.
Tests used:
Homo sapiens [1] = organism: Homo sapiens; assay: Inhibition of DNAJB1-[…] gene fusion of J-PKAc alpha chimeric protein (unknown origin) up to 200 uM using CREB KRREILSRRPSYR-biotinylated peptide as substrate incubated for 45 mins in presence of ATP by ELISA
[2] = molecular target: T1, cAMP-dependent protein kinase catalytic subunit alpha (Homo sapiens, UniProt P17612); assay: Inhibition of PKAcalpha (unknown origin) up to 200 uM using CREB KRREILSRRPSYR-biotinylated peptide as substrate incubated for 45 mins in presence of ATP by ELISA
[3] = Inhibition of DNAJB1-[…] gene fusion of J-PKAc alpha chimeric protein (unknown origin) using CREB KRREILSRRPSYR-biotinylated peptide as substrate incubated for 45 mins in presence of ATP by ELISA; design: species or system Homo sapiens
[4] = molecular target: T1, cAMP-dependent protein kinase catalytic subunit alpha; assay: Inhibition of PKAcalpha (unknown origin) using CREB KRREILSRRPSYR-biotinylated peptide as substrate incubated for 45 mins in presence of ATP by ELISA
Homo sapiens [5] = organism: Homo sapiens; assay: Inhibition of DNAJB1-[…] gene fusion of J-PKAc alpha chimeric protein (unknown origin) at 10 uM using CREB KRREILSRRPSYR-biotinylated peptide as substrate incubated for 45 mins in presence of 25 to 250 uM ATP by ELISA
Homo sapiens [6] = organism: Homo sapiens; assay: Potency index, ratio of IC50 for acroamine A to IC50 for test compound for inhibition of DNAJB1-[…] gene fusion of J-PKAc alpha chimeric protein (unknown origin) using CREB KRREILSRRPSYR-biotinylated peptide as substrate incubated for 45 mins in presence of ATP by ELISA
[7] = molecular target: T1, cAMP-dependent protein kinase catalytic subunit alpha; assay: Potency index, ratio of IC50 for acroamine A to IC50 for test compound for inhibition PKAcalpha (unknown origin) using CREB KRREILSRRPSYR-biotinylated peptide as substrate incubated for 45 mins in presence of ATP by ELISA
Homo sapiens [8] = organism: Homo sapiens; assay: Inhibition of DNAJB1-[…] gene fusion of J-PKAc alpha chimeric protein (unknown origin) at 2 uM using CREB KRREILSRRPSYR-biotinylated peptide as substrate incubated for 45 mins in presence of 25 to 250 uM ATP by ELISA

| SMILES | inhibition (Homo sapiens [1]) | inhibition [2] | IC50 [3] [µM] | IC50 [4] [µM] | further results |
| --- | --- | --- | --- | --- | --- |
| C/N=c1\nc(N(C)CCc2cn(C)c[n+]2C)c2c(ncn2C)n1C | inactive | inactive |  |  |  |
| Nc1nc(NCCc2nc(Br)[nH]c2Br)c2nc(Br)[nH]c2n1 |  |  | 2.5 | 2.4 | Ratio IC50 (Homo sapiens [6]): 19; Ratio IC50 [7]: 19; inhibition (Homo sapiens [8]): inactive |
| Cn1cc(CCNc2n/c(=N\C=[N+](C)C)n(C)c3ncn(C)c23)[n+](C)c1 | inactive | inactive |  |  |  |
| Cn1cc(CCNc2nc(=N)n(C)c3ncn(C)c23)[n+](C)c1 | inactive | inactive |  |  |  |
| CN(C)c1nc(NCCc2cn(C)c[n+]2C)c2c(n1)[n+](C)cn2C | inactive | inactive |  |  |  |
| C/N=c1\nc(NCCc2cn(C)c[n+]2C)c2c(ncn2C)n1C | inactive | inactive |  |  |  |

Second part, led by results:

| inhibition (Homo sapiens [1]) | inhibition [2] | IC50 [3] [µM] | IC50 [4] [µM] | SMILES | further results |
| --- | --- | --- | --- | --- | --- |
|  |  | 11.5 | 11.6 | Nc1nc(NCCc2nc[nH]c2Br)c2nc[nH]c2n1 | inhibition (Homo sapiens [5]): inactive |
|  |  | 8.9 | 5.7 | Nc1nc(NCCc2nc(Br)[nH]c2Br)c2nc[nH]c2n1 | inhibition (Homo sapiens [5]): inactive |
|  |  | 47 | 29 | Nc1nc(NCCc2c[nH]cn2)c2nc[nH]c2n1 |  |

Reference: ChEMBL document CHEMBL5584317, “Acroamine A, a 2-Amino Adenine Alkaloid from the Marine Soft Coral Acrozoanthus australiae and Its Semisynthetic Derivatives That Inhibit cAMP-Dependent Protein Kinase A Catalytic Subunit Alpha” (J Nat Prod, 2024)
